pIC50: −log10 of the molar value.

What all share (format): functional, cell-based
One experiment deals with DLD-1. The experiment is described as follows: Cytotoxicity against human DLD1 cells after 96 hrs by SRB assay. In general terms: In SRB staining, fixed cells bind dye roughly in proportion to their protein.
The test system of the next experiment is A2780. The experiment is described as follows: Cytotoxicity against human A2780 cells after 96 hrs by SRB assay.
In the next experiment the test system is 8505C. The experiment is described as follows: Cytotoxicity against human 8505C cells after 96 hrs by SRB assay.
Experiment [1] can be described thus: Cytotoxicity against human A253 cells after 96 hrs by SRB assay.
Another experiment has as its system A549. In words: Cytotoxicity against human A549 cells after 96 hrs by SRB assay.
A short description of experiment [2]: Cytotoxicity against human Lipo cells after 96 hrs by SRB assay.
The test system of the next experiment is SW-1736. In words: Cytotoxicity against human SW1736 cells after 96 hrs by SRB assay.
Another experiment deals with MCF7. The experiment is described as follows: Cytotoxicity against human MCF7 cells after 96 hrs by SRB assay.

In general, pIC50 refers to the IC50 on a negative log10 scale, so that one unit is a factor of ten. A low value points to a large IC50. For the compound `CC1(C)[C@@H](OC(=O)CCN)CC[C@]2(C)[C@H]3C(=O)C=C4[C@@H]5C[C@@](C)(C(=O)O)CC[C@]5(C)CC[C@@]4(C)[C@]3(C)CC[C@@H]12`, the negative-log IC50 (pIC50) is below 4.52 in the experiment on DLD-1 (Homo sapiens, DLD-1, 96 h); below 4.52 in the experiment with A2780 (Homo sapiens, A2780, 96 h); below 4.52 in the experiment on 8505C (Homo sapiens, 8505C, 96 h); below 4.52 in experiment [1] (Homo sapiens, A253, 96 h); below 4.52 in the experiment with A549 (Homo sapiens, A549, 96 h); below 4.52 in experiment [2] (Homo sapiens, Lipo, 96 h).

Turning to `COC(=O)[C@@]1(C)CC[C@]2(C)CC[C@]3(C)C(=CC(=O)[C@@H]4[C@@]5(C)CC[C@H](OC(=O)CCN)C(C)(C)[C@@H]5CC[C@]43C)[C@@H]2C1` [listing 1 of 2 here], the pIC50 in the experiment on DLD-1 (Homo sapiens, DLD-1, 96 h) was 5.60; with SW-1736 (Homo sapiens, SW-1736, 96 h), 5.74; in the experiment on MCF7 (Homo sapiens, MCF7, 96 h) it was 5.60; with A2780 (Homo sapiens, A2780, 96 h), 5.76; with 8505C (Homo sapiens, 8505C, 96 h) it was 5.59; in experiment [1] (Homo sapiens, A253, 96 h) it was 5.60. Besides, the pIC50 with A549 (Homo sapiens, A549, 96 h) was 5.62; in experiment [2] (Homo sapiens, Lipo, 96 h) it was 5.60.

With `CCOC(=O)[C@@]1(C)CC[C@]2(C)CC[C@]3(C)C(=CC(=O)[C@@H]4[C@@]5(C)CC[C@H](OC(=O)CN)C(C)(C)[C@@H]5CC[C@]43C)[C@@H]2C1`, the negative-log IC50 (pIC50) is 5.25 with DLD-1 (Homo sapiens, DLD-1, 96 h); 5.41 in the experiment on A2780 (Homo sapiens, A2780, 96 h); 5.27 with 8505C (Homo sapiens, 8505C, 96 h); 5.44 in experiment [1] (Homo sapiens, A253, 96 h); 5.27 with A549 (Homo sapiens, A549, 96 h); 5.36 in experiment [2] (Homo sapiens, Lipo, 96 h).

For `CC1(C)[C@@H](OC(=O)CN)CC[C@]2(C)[C@H]3C(=O)C=C4[C@@H]5C[C@@](C)(C(=O)O)CC[C@]5(C)CC[C@@]4(C)[C@]3(C)CC[C@@H]12`, the pIC50 was below 4.52 in the experiment with DLD-1 (Homo sapiens, DLD-1, 96 h); below 4.52 in the experiment on A2780 (Homo sapiens, A2780, 96 h); below 4.52 in the experiment on 8505C (Homo sapiens, 8505C, 96 h); below 4.52 in experiment [1] (Homo sapiens, A253, 96 h); below 4.52 in the experiment on A549 (Homo sapiens, A549, 96 h); below 4.52 in experiment [2] (Homo sapiens, Lipo, 96 h).

As to `CC1(C)[C@@H](OC(=O)CN)CC[C@]2(C)[C@H]3C(=O)C=C4[C@@H]5C[C@@](C)(C(=O)OCc6ccccc6)CC[C@]5(C)CC[C@@]4(C)[C@]3(C)CC[C@@H]12`, the pIC50 is 5.34 with DLD-1 (Homo sapiens, DLD-1, 96 h); 5.45 in the experiment with A2780 (Homo sapiens, A2780, 96 h); 5.32 in the experiment with 8505C (Homo sapiens, 8505C, 96 h); 5.30 in experiment [1] (Homo sapiens, A253, 96 h); 5.29 with A549 (Homo sapiens, A549, 96 h); 5.32 in experiment [2] (Homo sapiens, Lipo, 96 h).

Turning to `COC(=O)[C@@]1(C)CC[C@]2(C)CC[C@]3(C)C(=CC(=O)[C@@H]4[C@@]5(C)CC[C@H](OC(=O)CN)C(C)(C)[C@@H]5CC[C@]43C)[C@@H]2C1` [listing 1 of 2 here], the negative-log IC50 (pIC50) in the experiment with DLD-1 (dld-1) is 5.19; in the experiment on SW-1736 (sw-1736) it was 5.25; in the experiment with MCF7 (mcf7) it was 5.24; in the experiment with A2780 (a2780), 5.36; in the experiment with 8505C (8505c), 5.24; in experiment [1] (a253), 5.26. Also, the pIC50 with A549 (a549) is 5.26; in experiment [2] (lipo) it was 5.23.

On to `C[C@H](N)C(=O)O[C@H]1CC[C@]2(C)[C@H]3C(=O)C=C4[C@@H]5C[C@@](C)(C(=O)O)CC[C@]5(C)CC[C@@]4(C)[C@]3(C)CC[C@H]2C1(C)C`, for which the pIC50 was below 4.52 with DLD-1 (Homo sapiens, DLD-1, 96 h); below 4.52 in the experiment on A2780 (Homo sapiens, A2780, 96 h); below 4.52 in the experiment with 8505C (Homo sapiens, 8505C, 96 h); below 4.52 in experiment [1] (Homo sapiens, A253, 96 h); below 4.52 in the experiment on A549 (Homo sapiens, A549, 96 h); below 4.52 in experiment [2] (Homo sapiens, Lipo, 96 h).

With `CC1(C)[C@@H](OC(=O)CCN)CC[C@]2(C)[C@H]3C(=O)C=C4[C@@H]5C[C@@](C)(C(=O)OCc6ccccc6)CC[C@]5(C)CC[C@@]4(C)[C@]3(C)CC[C@@H]12`, the pIC50 was 5.34 in the experiment on DLD-1 (Homo sapiens, DLD-1, 96 h); 5.76 in the experiment with A2780 (Homo sapiens, A2780, 96 h); 5.50 in the experiment with 8505C (Homo sapiens, 8505C, 96 h); 5.52 in experiment [1] (Homo sapiens, A253, 96 h); 5.56 in the experiment with A549 (Homo sapiens, A549, 96 h); 5.49 in experiment [2] (Homo sapiens, Lipo, 96 h).

Regarding `C[C@H](N)C(=O)O[C@H]1CC[C@]2(C)[C@H]3C(=O)C=C4[C@@H]5C[C@@](C)(C(=O)OCc6ccccc6)CC[C@]5(C)CC[C@@]4(C)[C@]3(C)CC[C@H]2C1(C)C`, the pIC50 in the experiment on DLD-1 (Homo sapiens, DLD-1, 96 h) is 5.30; with A2780 (Homo sapiens, A2780, 96 h) it was 5.55; in the experiment on 8505C (Homo sapiens, 8505C, 96 h), 5.51; in experiment [1] (Homo sapiens, A253, 96 h), 5.46; in the experiment with A549 (Homo sapiens, A549, 96 h), 5.45; in experiment [2] (Homo sapiens, Lipo, 96 h) it was 5.45.

In the case of `COC(=O)[C@@]1(C)CC[C@]2(C)CC[C@]3(C)C(=CC(=O)[C@@H]4[C@@]5(C)CC[C@H](OC(=O)[C@H](C)N)C(C)(C)[C@@H]5CC[C@]43C)[C@@H]2C1`, the pIC50 was 5.44 in the experiment on DLD-1 (dld-1); 5.40 with SW-1736 (sw-1736); 5.41 in the experiment with MCF7 (mcf7); 5.64 in the experiment on A2780 (a2780); 5.45 in the experiment with 8505C (8505c); 5.46 in experiment [1] (a253). For the same compound, the pIC50 (with A549 (a549); in experiment [2] (lipo)) was 5.45 throughout.

Take `CC(C)OC(=O)[C@@]1(C)CC[C@]2(C)CC[C@]3(C)C(=CC(=O)[C@@H]4[C@@]5(C)CC[C@H](OC(=O)CN)C(C)(C)[C@@H]5CC[C@]43C)[C@@H]2C1`: the pIC50 in the experiment with DLD-1 (Homo sapiens, DLD-1, 96 h) is 5.60; in the experiment with A2780 (Homo sapiens, A2780, 96 h), 5.65; in the experiment with 8505C (Homo sapiens, 8505C, 96 h) it was 5.56; in experiment [1] (Homo sapiens, A253, 96 h) it was 5.70; with A549 (Homo sapiens, A549, 96 h), 5.58; in experiment [2] (Homo sapiens, Lipo, 96 h), 5.56.

For `COC(=O)[C@@]1(C)CC[C@]2(C)CC[C@]3(C)C(=CC(=O)[C@@H]4[C@@]5(C)CC[C@H](OC(=O)CCN)C(C)(C)[C@@H]5CC[C@]43C)[C@@H]2C1` [listing 2 of 2 here], the pIC50 in the experiment with DLD-1 (dld-1) is 5.45; with SW-1736 (sw-1736) it was 5.61; in the experiment on MCF7 (mcf7), 5.61; in the experiment with A2780 (a2780), 5.81; in the experiment with 8505C (8505c), 5.60; in experiment [1] (a253), 5.60. Moreover, the pIC50 in the experiment on A549 (a549) was 5.79; in experiment [2] (lipo), 5.45.

Consider `CC(C)OC(=O)[C@@]1(C)CC[C@]2(C)CC[C@]3(C)C(=CC(=O)[C@@H]4[C@@]5(C)CC[C@H](OC(=O)CCN)C(C)(C)[C@@H]5CC[C@]43C)[C@@H]2C1`, for which the pIC50 in the experiment with DLD-1 (Homo sapiens, DLD-1, 96 h) was 5.45; in the experiment with A2780 (Homo sapiens, A2780, 96 h), 5.88; in the experiment on 8505C (Homo sapiens, 8505C, 96 h), 5.71; in experiment [1] (Homo sapiens, A253, 96 h) it was 5.57; in the experiment with A549 (Homo sapiens, A549, 96 h), 5.75; in experiment [2] (Homo sapiens, Lipo, 96 h) it was 5.46.

Turning to `CCOC(=O)[C@@]1(C)CC[C@]2(C)CC[C@]3(C)C(=CC(=O)[C@@H]4[C@@]5(C)CC[C@H](OC(=O)CCN)C(C)(C)[C@@H]5CC[C@]43C)[C@@H]2C1`, the pIC50 in the experiment on DLD-1 (Homo sapiens, DLD-1, 96 h) is 5.56; with A2780 (Homo sapiens, A2780, 96 h) it was 5.75; with 8505C (Homo sapiens, 8505C, 96 h), 5.63; in experiment [1] (Homo sapiens, A253, 96 h) it was 5.65; in the experiment with A549 (Homo sapiens, A549, 96 h), 5.66; in experiment [2] (Homo sapiens, Lipo, 96 h), 5.62.

Turning to `COC(=O)[C@@]1(C)CC[C@]2(C)CC[C@]3(C)C(=CC(=O)[C@@H]4[C@@]5(C)CC[C@H](OC(=O)CN)C(C)(C)[C@@H]5CC[C@]43C)[C@@H]2C1` [listing 2 of 2 here], the pIC50 was 5.07 with DLD-1 (Homo sapiens, DLD-1, 96 h); 5.20 in the experiment with SW-1736 (Homo sapiens, SW-1736, 96 h); 5.15 in the experiment with MCF7 (Homo sapiens, MCF7, 96 h); 5.22 with A2780 (Homo sapiens, A2780, 96 h); 5.13 in the experiment on 8505C (Homo sapiens, 8505C, 96 h); 5.20 in experiment [1] (Homo sapiens, A253, 96 h). Also, the pIC50 in the experiment with A549 (Homo sapiens, A549, 96 h) was 5.19; in experiment [2] (Homo sapiens, Lipo, 96 h), 5.12.

These data come from ChEMBL document CHEMBL1268974, “Synthesis and antitumour activity of glycyrrhetinic acid derivatives” (Bioorg Med Chem, 2010).
